Common to all, as to format: cell-based
The test system of one assay is SW480 colon cancer cells. The assay can be described thus: Cell viability assay (CellTiter-Blue). The settings on record: Homo sapiens, 96 h, four days; for inhibition at 10 µM: given where EC50 >10 μM, read-out: percent inhibition at 10 μM. The essentials: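 SW480 cells (~2×10^3 per well) were exposed to compound for four days at 37 °C/5% CO2, using 8-point 1:3 dilutions from 10 μM to 0.0045 μM in duplicate. Viability was read by resazurin reduction (CellTiter-Blue, ~3 h, Ex 560/Em 590 nm). EC50 came from non-linear regression; above 10 μM, percent inhibition at 10 μM is given.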

Assay [1] relates to Wnt activity (Sp5-Luc reporter, SW480 colon carcinoma cells). Nature of the assay: Wnt activity screening assay, Sp5-Luc reporter gene in SW480 cells. Particulars: Homo sapiens; for inhibition at 10 µM: given where EC50 >10 μM, read-out: percent inhibition at 10 μM; for pEC50: overnight incubation. Put shortly: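 First, hygromycin-selected SW480 Sp5-Luc reporter cells are seeded in medium with 1% fetal bovine serum and exposed overnight to compound (up to 10 μM, 0.1% DMSO). Next, luciferase signal is read by luminescence. Finally, EC50 is fitted, or percent inhibition at 10 μM is reported above 10 μM.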

The next assay deals with IL-6 (THP-1 cells). Nature of the assay: IL-6 inhibition in LPS-stimulated THP-1 cells (HTRF). Particulars: Homo sapiens; for pEC50: IL-6 in THP-1 cells, LPS 500 ng/mL, 22 hours; for inhibition at 10 µM: given where EC50 >10 μM, IL-6, THP-1 cells, LPS, read-out: percent inhibition at 10 μM. The essentials:
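THP-1 cells, serum-reduced (1% FBS) for 24 h, were preincubated with compound (10-point 1:3 series from 10 μM, 0.1% DMSO) for 2 h, then stimulated with 500 ng/mL LPS for 22 h at 37° C. IL-6 was read by HTRF (665/620 nm ratio) and normalized to DMSO. EC50 from four-parameter fit; % inhibition at 10 μM given if EC50 >10 μM.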

pEC50: −log10 of the molar value.

As usually defined, the inhibition is the change of the read-out against control, counted positive when it falls. The pEC50 is the EC50 on a negative log10 scale, so that one unit is a factor of ten. With `CCC(=O)Nc1cncc(-c2cc3c(-c4cc5c(-c6cccc(F)c6)ccnc5[nH]4)n[nH]c3cn2)c1` [Compound 1, N-(5-(3-(4-(3-Fluorophenyl)-1H-pyrrolo[2,3-b]pyridin-2-yl)-1H-pyrazolo [3,4-c]pyridin-5-yl)pyridin-3-yl)propionamide], the inhibition at 10 µM with SW480 colon cancer cells turned out to be 36.3%; in assay [1], 24.3%; with IL-6 (THP-1 cells) it was 23.6%. Besides, the pEC50 (in the assay with SW480 colon cancer cells; in assay [1]; in the assay with IL-6 (THP-1 cells)) was less than 5.00 each time.

For `Cn1cc(-c2cc3c(-c4cc5cccnc5[nH]4)n[nH]c3cn2)cn1` [Compound 652, 5-(1-Methyl-1H-pyrazol-4-yl)-3-(1H-pyrrolo[2,3-b]pyridin-2-yl)-1H-pyrazolo[3,4-c]pyridine], the inhibition at 10 µM in the assay with SW480 colon cancer cells came to 0%; in assay [1], 21.6%; in the assay with IL-6 (THP-1 cells), 15.2%. Moreover, the pEC50 (with SW480 colon cancer cells; in assay [1]; with IL-6 (THP-1 cells)) was less than 5.00 throughout.

`CC(C)(C)C(=O)Nc1cncc(-c2cc3c(-c4cc5c(-c6cccnc6)ccnc5[nH]4)n[nH]c3cn2)c1` [Compound 92, N-(5-(3-(4-(Pyridin-3-yl)-1H-pyrrolo[2,3-b]pyridin-2-yl)-1H-pyrazolo[3,4-c]pyridin-5-yl)pyridin-3-yl)pivalamide]: the inhibition at 10 µM turned out to be 14.9% in the assay on SW480 colon cancer cells, 3.4% in assay [1] and 23.3% with IL-6 (THP-1 cells). In addition, the pEC50 (in the assay with SW480 colon cancer cells; in assay [1]; with IL-6 (THP-1 cells)) was less than 5.00 each time.

For the compound `c1cncc(-c2ccnc3[nH]c(-c4n[nH]c5cnc(-c6cncnc6)cc45)cc23)c1` [Compound 111, 3-(4-(Pyridin-3-yl)-1H-pyrrolo[2,3-b]pyridin-2-yl)-5-(pyrimidin-5-yl)-1H-pyrazolo[3,4-c]pyridine], the inhibition at 10 µM with SW480 colon cancer cells worked out at 17.3%; in assay [1] it was 7.8%; in the assay with IL-6 (THP-1 cells), 37.4%. Further, the pEC50 (in the assay with SW480 colon cancer cells; in assay [1]; in the assay on IL-6 (THP-1 cells)) was less than 5.00 in each case.

For the compound `c1csc(-c2ccnc3[nH]c(-c4n[nH]c5cnc(-c6cncc(OC7CCCCC7)c6)cc45)cc23)c1` [Compound 703, 5-(5-(Cyclohexyloxy)pyridin-3-yl)-3-(4-(thiophen-2-yl)-1H-pyrrolo[2,3-b]pyridin-2-yl)-1H-pyrazolo[3,4-c]pyridine], the values for the inhibition at 10 µM (in the assay on SW480 colon cancer cells; in assay [1]; in the assay on IL-6 (THP-1 cells)) were 2.7%, 13.6% and 43.3%, respectively. Besides, the pEC50 (in the assay with SW480 colon cancer cells; in assay [1]; with IL-6 (THP-1 cells)) was less than 5.00 in each case.

As to `CN1CCN(c2ccnc3[nH]c(-c4n[nH]c5cnc(-c6cncc(CNCC7CCCC7)c6)cc45)cc23)CC1` [Compound 249, 1-Cyclopentyl-N-((5-(3-(4-(4-methylpiperazin-1-yl)-1H-pyrrolo[2,3-b]pyridin-2-yl)-1H-pyrazolo[3,4-c]pyridin-5-yl)pyridin-3-yl)methyl)methanamine], the pEC50 was 5.37 with SW480 colon cancer cells, less than 5.00 in assay [1] and 5.10 with IL-6 (THP-1 cells). Further, the inhibition at 10 µM in assay [1] came out at 41.4%.

With `CN(C)CCNc1cc(F)cc(-c2ccnc3[nH]c(-c4n[nH]c5cnc(-c6ccncc6)cc45)cc23)c1` [Compound 466, N^1-(3-Fluoro-5-(2-(5-(pyridin-4-yl)-1H-pyrazolo[3,4-c]pyridin-3-yl)-1H-pyrrolo[2,3-b]pyridin-4-yl)phenyl)-N^2,N^2-dimethylethane-1,2-diamine], the values for the inhibition at 10 µM (in the assay on SW480 colon cancer cells; in assay [1]; in the assay on IL-6 (THP-1 cells)) were 16.8%, 16.5% and 5.9%, respectively. The pEC50 (in the assay with SW480 colon cancer cells; in assay [1]; in the assay on IL-6 (THP-1 cells)) was less than 5.00 in each case.

On to `c1cncc(-c2cc3c(-c4cc5cccnc5[nH]4)n[nH]c3cn2)c1` [Compound 256, 5-(Pyridin-3-yl)-3-(1H-pyrrolo[2,3-b]pyridin-2-yl)-1H-pyrazolo[3,4-c]pyridine], for which the inhibition at 10 µM in the assay with SW480 colon cancer cells turned out to be 19.3%; in assay [1] it was 57.7%. Further, the pEC50 is less than 5.00 in the assay on SW480 colon cancer cells, less than 5.00 in assay [1] and 7.64 with IL-6 (THP-1 cells).

For the origin of these results see patent publication US10285982B2, “3-(1H-pyrrolo[2,3-B]pyridin-2-yl)-1H-pyrazolo[3,4-C]pyridines and therapeutic uses thereof” (Samumed, LLC, priority 2015, dated 2019).
